Data: patent US10005846B2, “Anti-transglutaminase 2 antibodies” (MEDICAL RESEARCH COUNCIL TECHNOLOGY, priority 2012, dated 2018)

What was measured:
[1] = molecular target: T1, extracellular TG2 in human HK-2 cells (Homo sapiens, UniProt P21980); experiment: Extracellular TG activity in HK-2 cells, biotin cadaverine incorporation into fibronectin (Example 1); format: cell-based; conditions: 400 μM of the site-specific pan TG inhibitor 1,3-Dimethyl-2-[(2-oxo-propyl)thio]imidazolium chloride
T1 construct: endogenous in cells; host or cells: HK-2 (kidney proximal tubular epithelium)
T1 sequence (P21980 1-687): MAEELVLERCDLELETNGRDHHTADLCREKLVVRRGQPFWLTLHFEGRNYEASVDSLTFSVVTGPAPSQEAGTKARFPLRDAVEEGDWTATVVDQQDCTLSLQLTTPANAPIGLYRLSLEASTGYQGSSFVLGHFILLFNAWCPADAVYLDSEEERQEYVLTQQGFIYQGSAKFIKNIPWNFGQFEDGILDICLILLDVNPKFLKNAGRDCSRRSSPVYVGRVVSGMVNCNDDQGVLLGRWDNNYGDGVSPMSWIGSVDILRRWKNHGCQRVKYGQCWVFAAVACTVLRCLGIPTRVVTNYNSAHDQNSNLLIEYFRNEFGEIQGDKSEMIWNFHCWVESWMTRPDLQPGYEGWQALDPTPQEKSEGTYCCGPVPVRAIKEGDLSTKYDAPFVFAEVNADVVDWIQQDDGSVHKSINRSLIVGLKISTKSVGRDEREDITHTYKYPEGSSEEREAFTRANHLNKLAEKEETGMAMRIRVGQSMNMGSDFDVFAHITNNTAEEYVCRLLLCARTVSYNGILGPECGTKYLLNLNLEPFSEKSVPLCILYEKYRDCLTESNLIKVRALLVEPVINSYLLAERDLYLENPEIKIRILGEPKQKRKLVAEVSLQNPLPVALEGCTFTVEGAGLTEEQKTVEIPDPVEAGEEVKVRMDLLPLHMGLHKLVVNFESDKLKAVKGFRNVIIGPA
Procedure: HK2 cells were plated onto fibronectin and incubated for 2 hours in the presence of 0.1M biotin cadaverine with either 4 ng/μl of human anti-TG2 antibody (AB1) (part A), 4 ng/μl of human anti-TG2 antibody (DC1) (part B) or 400 μM of the site-specific pan TG inhibitor 1,3-Dimethyl-2-[(2-oxo-propyl)thio]imidazolium chloride. […] Changes in optical density were measured at 450 nm in a 96 well plate reader. Data represents mean OD at 450 nm corrected to 1 mg of cell protein. n=6 wells per experimental group.
Extracellular TG activity was measured by modified cell ELISA. HK-2 epithelial cells were harvested using 0.1M EDTA or 0.25% trypsin/EDTA and plated at a density of 8×10^4 cells/well in serum free medium onto a 96 well plate that had been coated overnight with 100 μl/well of fibronectin (5 μg/ml in 50 mM Tris-HCl pH 7.4) (Sigma, Poole UK). Cells were allowed to attach for 2.5 h at 37° C. in the presence of the 0.1 mM biotin cadaverine [N-(5 amino pentyl biotinamide) trifluoroacetic acid] (Molecular Probes, Eugene Oreg., USA). Plates were washed twice with 3 mM EDTA/PBS and cells removed with 0.1% (w/v) deoxycholate in 5 mM EDTA/PBS. The supernatant was collected and used for protein determination. […] The reaction was stopped with 50 μl 2.5 M H2SO4 and the absorbance read at 450 nm.

WI-38 cells = experiment: Scratch wound assay in WI-38 cells; format: cell-based, human; conditions: serum free media; Cytochalasin D 0.1 μM, R281 100 μM, Z DON 10 μM and 100 μM, Cub7402 5 μg/ml
Procedure: WI-38 cells (normal human lung fibroblasts ATCC cat#CCL-75) were plated in a 96 well Image Lock plate (Essen cat#4379) at 2×10^4/well in αMEM media (Life Technologies cat#32561) with 10% FBS and grown O/N to >97% confluence. Cells were washed 2× with αMEM media without serum and a scratch wound was generated using an Essen Wound Maker and the manufacturers protocol. The media was removed and replaced with 95 μl/well serum free media. Controls and test antibodies were added to the wells. The plate was placed in an Essen Incucyte and the closure of the wound was analysed using the scratch wound protocol.
Cytochalasin D was used as an assay control at 0.1 μM. R281, a small molecule non-specific transglutaminase inhibitor, was tested at 100 μM. Z DON, a peptide non reversible transglutaminase inhibitor was tested at 10 μM and 100 μM. The commercially available TG2 antibody Cub7402 (ABcam cat#ab2386) was tested at 5 μg/ml. Antibodies of the invention were tested on at least three occasions at various concentrations as indicated. In all experiments controls were Cytochalasin D at 0.1 uM and ZDON at two concentrations to show a dose dependant effect.

| Structure (SMILES) | inhibition of extracellular TG activity relative to AB1 and DC1 [1] | effect on wound closure (WI-38 cells) |
| --- | --- | --- |
| CC(=O)CSc1n(C)cc[n+]1C.[Cl-] [1,3-Dimethyl-2-[(2-oxo-propyl)thio]imidazolium chloride, reference compound] | comparable |  |
| C=C1[C@@H](C)[C@H]2[C@H](Cc3ccccc3)NC(=O)[C@]23[C@H](OC(C)=O)/C=C/[C@@](C)(O)C(=O)[C@@H](C)C/C=C/[C@H]3[C@@H]1O [Cytochalasin D, reference compound] |  | inhibited wound closure |
